Test results: patent publication US20080025960A1, “Detergents with stabilized enzyme systems” (priority 2006, published 2008)

How the values were obtained:
glucose oxidase = biological target: T1, glucose oxidase (Aspergillus niger, UniProt P13006); experiment: Hydrogen peroxide generation by glucose oxidase after dilution of the mixture in laundry wash liquor, dipsticks; type: biochemical; conditions: for Hydrogen Peroxide Generation, PPM H2O2 / H2O2 PPM: wash liquor, 1 mM glucose; for Hydrogen Peroxide Generation, PPM H2O2: 1 PPM oxidase; for character of glucose oxidase inhibition: inhibited at high substrate concentration in detergent, inhibition disappears upon dilution in wash water, concentration-dependent; for hydrogen peroxide produced: liquid detergent formulations after 3 weeks of storage with inhibitor, diluted in wash liquor; for H2O2 generated: wash liquor control containing buffer
T1 construct: purchased Genencor OXYGO L-5000
Experimental: In these experiments, 100 mM Tris pH 8.3 with 0.005% TWEEN®-100 surfactant was used as a positive control. The choice of pH 8.3 was based upon the measured pH of the AATCC detergent. Three two-ml tubes containing 0.990 g of AATCC detergent (lot # 01282004) and another three tubes with 0.990 g of control buffer were weighed. Then, 90 mg (500 mM) glucose substrate was added to each tube. […] All of the tubes were placed on a rotary plate for an hour to allow good mixing and solubilization of glucose into the detergent. Then, 6 tubes containing five-ml wash water (5 mM HEPES with 6 GPG, pH 8) were prepared. Next, 500 PPM (0.5 mg, 14.88 ul) glucose oxidase (OXYGO™ L-5000, 5379 U/ml; 33.6 mg/ml; Genencor) was added to six 2-ml tubes (three with glucose/bisulfite containing control buffers and three with glucose/bisulfite containing AATCC detergent). All of the tubes were then set on the rotary plate (60 rpm) at room temperature. H2O2 production was measured using dipsticks (peroxidase/ABTS), as described in Example 1, for t=0+ minutes, 12 minutes, and 30 minutes. Immediately after addition of the enzyme to the detergent and control mixtures, 10 ul of the mixture were removed and mixed with 5 ml of wash water. All of the tubes were also then checked for hydrogen peroxide using dipsticks at 12 and 30 minutes. With 5 ml wash liquor, the final glucose oxidase enzyme concentration was 1 PPM and the glucose concentration was 1 mM.
In these experiments, 100 mM Tris pH 8.3 with 0.005% TWEEN®-100 surfactant was used as a positive control. The choice of pH 8.3 was based upon the measured pH of the AATCC detergent. Three two-ml tubes containing 0.990 g of AATCC detergent (lot # 01282004) and another three tubes with 0.990 g of control buffer were weighed. Then, 90 mg (500 mM) glucose substrate was added to each tube. Then, 100, 50, and 10 mM sodium metabisulfite were added to each tube respectively (i.e., both control buffer and AATCC detergent-containing tubes). All of the tubes were placed on a rotary plate for an hour to allow good mixing and solubilization of glucose into the detergent. Then, 6 tubes containing five-ml wash water (5 mM HEPES with 6 GPG, pH 8) were prepared. Next, 500 PPM (0.5 mg, 14.88 ul) glucose oxidase (OXYGO™ L-5000, 5379 U/ml; 33.6 mg/ml; Genencor) was added to six 2-ml tubes (three with glucose/bisulfite containing control buffers and three with glucose/bisulfite containing AATCC detergent). All of the tubes were then set on the rotary plate (60 rpm) at room temperature. H2O2 production was measured using dipsticks (peroxidase/ABTS), as described in the above Examples, for t=0+ minutes, 12 minutes, and 30 minutes. Immediately after addition of the enzyme to the detergent and control mixtures, 10 ul of the mixture were removed and mixed with 5 ml of wash water. All of the tubes were also then checked for hydrogen peroxide using dipsticks at 12 and 30 minutes. With 5 ml wash liquor, the final glucose oxidase enzyme concentration was 1 PPM and the glucose concentration was 1 mM.

alcohol oxidase = biological target: T2, alcohol oxidase (Pichia angusta, UniProt P04841); experiment: Hydrogen peroxide concentration in wash liquor with alcohol oxidase, ethanol and inhibitor; type: biochemical, Hansunela sp.; conditions: 2 mM ethanol, 0.02U enzyme, 0.2 mM inhibitor
T2 construct: purchased Sigma
Experimental: The stability and activity of the alcohol oxidase enzyme (described in Example 5) in AATCC liquid detergent (Sigma, 100 U/ml. 22 U/mg, 13 mg total solid in vial, 7.7 U/mg solid) was tested upon dilution into wash liquor. In these experiments, 10 U of alcohol oxidase were used in liquid detergent stock for each experiment. In addition, 1M ethanol (substrate) was mixed in detergent (46 mg ethanol in 990 mg detergent). […] In these experiments, 10 ul of final detergent mix or control mix were added to 5 ml of wash liquor. The same methods as described in Examples 2 and 4 were used in these experiments.

T2 sequence (P04841 whole entry): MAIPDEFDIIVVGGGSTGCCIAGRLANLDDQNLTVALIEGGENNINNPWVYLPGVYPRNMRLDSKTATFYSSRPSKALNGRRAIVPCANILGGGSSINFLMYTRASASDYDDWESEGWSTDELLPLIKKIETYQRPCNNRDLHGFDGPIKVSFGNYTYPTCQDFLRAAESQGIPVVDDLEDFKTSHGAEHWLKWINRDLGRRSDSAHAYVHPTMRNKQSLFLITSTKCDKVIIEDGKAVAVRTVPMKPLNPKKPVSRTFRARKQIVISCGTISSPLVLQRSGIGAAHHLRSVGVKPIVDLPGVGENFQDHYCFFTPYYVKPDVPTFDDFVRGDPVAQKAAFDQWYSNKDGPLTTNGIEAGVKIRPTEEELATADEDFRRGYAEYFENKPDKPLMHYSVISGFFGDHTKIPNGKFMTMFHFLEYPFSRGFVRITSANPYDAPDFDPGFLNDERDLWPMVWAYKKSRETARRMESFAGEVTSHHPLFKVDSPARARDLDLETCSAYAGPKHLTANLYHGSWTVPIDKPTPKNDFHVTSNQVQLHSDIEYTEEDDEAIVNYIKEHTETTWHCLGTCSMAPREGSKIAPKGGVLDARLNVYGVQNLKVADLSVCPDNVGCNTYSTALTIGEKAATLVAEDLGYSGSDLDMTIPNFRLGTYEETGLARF
T1 sequence (P13006 17-605): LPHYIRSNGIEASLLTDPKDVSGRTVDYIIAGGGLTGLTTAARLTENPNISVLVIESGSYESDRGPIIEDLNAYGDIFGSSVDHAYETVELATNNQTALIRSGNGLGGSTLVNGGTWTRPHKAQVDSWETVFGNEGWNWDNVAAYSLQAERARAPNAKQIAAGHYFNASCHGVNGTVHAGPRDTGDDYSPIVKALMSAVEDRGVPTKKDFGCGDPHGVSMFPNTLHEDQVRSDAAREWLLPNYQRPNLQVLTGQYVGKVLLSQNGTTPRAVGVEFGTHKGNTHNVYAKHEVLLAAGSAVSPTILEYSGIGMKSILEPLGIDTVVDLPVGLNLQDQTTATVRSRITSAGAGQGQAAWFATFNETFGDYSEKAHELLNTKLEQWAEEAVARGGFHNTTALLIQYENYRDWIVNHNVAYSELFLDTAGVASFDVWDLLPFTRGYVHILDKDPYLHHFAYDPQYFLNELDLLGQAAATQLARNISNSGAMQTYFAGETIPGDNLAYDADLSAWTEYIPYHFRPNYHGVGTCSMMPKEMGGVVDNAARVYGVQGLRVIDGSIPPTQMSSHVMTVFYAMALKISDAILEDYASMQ

With `O=S([O-])O.[Na+]` [bisulfite, sodium hydrogen sulfite] the “Hydrogen Peroxide Generation, PPM H2O2” value (glucose oxidase; AATCC Detergent, T = 12 (second line so headed, after the T = 30 lines), 0.2 mM bisulfite) was “˜10 PPM”, the “Hydrogen Peroxide Generation, PPM H2O2” value (glucose oxidase; AATCC Detergent, T = 12 min, 0.02 mM bisulfite) was 3 PPM and the “Hydrogen Peroxide Generation, PPM H2O2” value (glucose oxidase; AATCC Detergent, T = 12 min, 0.1 mM bisulfite) was 3 PPM. The “Hydrogen Peroxide Generation, PPM H2O2” value (glucose oxidase; AATCC Detergent, T = 12 min, 0.2 mM bisulfite) was 3 PPM, the “Hydrogen Peroxide Generation, PPM H2O2” value (glucose oxidase; AATCC Detergent, T = 30 min, 0.02 mM bisulfite) was 10 PPM and the “Hydrogen Peroxide Generation, PPM H2O2” value (glucose oxidase; AATCC Detergent, T = 30 min, 0.1 mM bisulfite) was “˜10 PPM”. For the same compound, the “Hydrogen Peroxide Generation, PPM H2O2” value (glucose oxidase; Control Buffer, T = 12 (second line so headed, after the T = 30 lines), 0.2 mM bisulfite) was “˜3 PPM”, the “Hydrogen Peroxide Generation, PPM H2O2” value (glucose oxidase; Control Buffer, T = 30 min, 0.02 mM bisulfite) was 10 PPM and the “Hydrogen Peroxide Generation, PPM H2O2” value (glucose oxidase; Control Buffer, T = 30 min, 0.1 mM bisulfite) was “˜10 PPM”. The “character of glucose oxidase inhibition” value (glucose oxidase) was “reversible inhibitor”, the hydrogen peroxide generated (glucose oxidase; wash liquor containing AATCC detergent, all three bisulfite inhibitor concentrations, 12 minutes) was > 3 PPM and the hydrogen peroxide generated (glucose oxidase; wash liquor with AATCC detergent, all three bisulfite inhibitor concentrations, 30 minutes) was ~10 PPM. For the same compound, the “H2O2 PPM” value (alcohol oxidase; AATCC Detergent, T = 0+) was 0 PPM, the “H2O2 PPM” value (alcohol oxidase; AATCC Detergent, T = 12 min) was 0 PPM and the “H2O2 PPM” value (alcohol oxidase; AATCC Detergent, T = 30 min) was 0 PPM. The “H2O2 PPM” value (alcohol oxidase; AATCC Detergent, T = 120 min) was >3 (hydrogen sulfite) PPM, the “H2O2 PPM” value (alcohol oxidase; Control Buffer, T = 0+) was 0 PPM and the “H2O2 PPM” value (alcohol oxidase; Control Buffer, T = 12 min) was 0 PPM. The “H2O2 PPM” value (alcohol oxidase; Control Buffer, T = 30 min) was 0 PPM and the “H2O2 PPM” value (alcohol oxidase; Control Buffer, T = 120 min) was 1 (hydrogen sulfite) PPM.
For `O=S([O-])S(=O)(=O)[O-].[Na+].[Na+]` [sodium metabisulfite], the “H2O2 PPM” value (glucose oxidase; AATCC Detergent, T = 12 min, 1 PPM enzyme, 0.2 mM sodium metabisulfite) was 3 PPM, the “H2O2 PPM” value (glucose oxidase; AATCC Detergent, T = 30 min, 1 PPM enzyme, 0.2 mM sodium metabisulfite) was “˜10 PPM” and the “H2O2 PPM” value (glucose oxidase; AATCC Detergent, T = 60 min, 1 PPM glucose oxidase, 0.2 mM sodium metabisulfite) was >10 PPM. The “H2O2 PPM” value (glucose oxidase; Control Buffer, T = 12 min, 1 PPM enzyme, 0.2 mM sodium metabisulfite (100 mM in formulation)) was ~3 PPM, the “H2O2 PPM” value (glucose oxidase; Control Buffer, T = 12 min, 1 PPM enzyme, 0.2 mM sodium metabisulfite (100 mM in formulation), listed as sodium metabisulftie) was 1 PPM and the “H2O2 PPM” value (glucose oxidase; Control Buffer, T = 30 min, 1 PPM enzyme, 0.2 mM sodium metabisulfite) was 3 PPM. The “H2O2 PPM” value (glucose oxidase; Control Buffer, T = 60 min, 1 PPM glucose oxidase, 0.2 mM sodium metabisulfite) was 10 PPM, the “character of glucose oxidase inhibition” value (glucose oxidase) was “reversible inhibitor” and the hydrogen peroxide produced (glucose oxidase; 12 minutes) was 3 PPM. The hydrogen peroxide produced (glucose oxidase; 30 minutes) was ~10 PPM, the hydrogen peroxide generated (glucose oxidase; wash liquor containing AATCC detergent, all three metabisulfite inhibitor concentrations, 12 minutes) was > 3 PPM and the H2O2 generated (glucose oxidase; 10 mM metabisulfite (formulation), 12 minutes) was “about 10 PPM”. For the same compound, the H2O2 generated (glucose oxidase; 50 mM metabisulfite (formulation), 12 minutes) was “about 10 PPM”, the hydrogen peroxide generated (glucose oxidase; wash liquor with AATCC detergent, all three metabisulfite inhibitor concentrations, 30 minutes) was ~10 PPM and the “H2O2 PPM” value (alcohol oxidase; AATCC Detergent, T = 12 min) was 0 PPM. The “H2O2 PPM” value (alcohol oxidase; AATCC Detergent, T = 30 min) was 0 PPM, the “H2O2 PPM” value (alcohol oxidase; AATCC Detergent, T = 120 min) was 1 (metabisulfite) PPM and the “H2O2 PPM” value (alcohol oxidase; Control Buffer, T = 0+) was 0 PPM. The “H2O2 PPM” value (alcohol oxidase; Control Buffer, T = 12 min) was 0 PPM, the “H2O2 PPM” value (alcohol oxidase; Control Buffer, T = 30 min) was 0 PPM and the “H2O2 PPM” value (alcohol oxidase; Control Buffer, T = 120 min) was 0 (metabisulfite) PPM.
